Measurements: patent US6811998B2, “Conjugates of uncompetitive inhibitors of inosine monophosphate dehydrogenase” (priority 1999, dated 2004)

What was measured:
[1] = target: T1, IMPDH II (Homo sapiens, UniProt P12268); assay: Inhibition constants of ligand inhibitors: NADH formation at 340 nm, 10 minutes, 40° C.; format: biochemical; settings: IMPDH II 0.00065 U/ml, non-linear curve fit
[2] = target: T1, IMPDH II; assay: IC50 by slightly different method: enzyme rate on HITACHI 917 as in Examples 20 and 29, no antibody, saline sample; format: biochemical; design: made in house; host or cells: E. coli; settings: values marked *: HITACHI 917 method
Experimental: One liter of an enzyme reagent, or second reagent, was prepared as follows. Approximately 800 ml deionized water was dispensed into a container and 168.8 grams of NaTAPSO was added and completely dissolved. Next, 1.15 grams of TCEP was dissolved. Next 31.4 grams of IMP was dissolved, then 2.23 grams of Na2EDTA were dissolved. Next 1.0 gram of SUTTOCIDE A was dissolved. The volume was adjusted to one liter with deionized water. Enough recombinant human IMPDH-II was added (as a 35% ammonium sulfate precipitate of an E. coli lysate supernatant) and dissolved completely in order to achieve a change in absorbance at 340 nm of 780×10^−4 over 5 minutes at 37° C. […]
(§1) An HITACHI 917 analyzer (Roche Diagnostics Corp., Indianapolis) was programmed to dispense 3 μl of sample and 150 μl of antibody reagent into a 37° C. cuvette, which were then mixed and incubated for 5 minutes after which time 150 μl of enzyme reagent was added and mixed. The rate at 340 nm (mA/min) was calculated during the period 3 minutes 13 seconds to 4 minutes 42 seconds (read window 29-34) following enzyme reagent addition.
One liter of a second reagent was prepared as follows. […] Enough recombinant human IMPDH-II was added (as a 35% ammonium sulfate precipitate of an E. coli lysate supernatant) and dissolved completely in order to achieve a change in absorbance at 340 nm of 3100×10^−4 over 5 minutes at 37° C. […]

[3] = target: T1, IMPDH II; assay: Homogeneous enzyme immunoassay with ligand-inhibitor conjugate (thyroxine and theophylline); format: biochemical; design: made in house; host or cells: E. coli; settings: compared with MPA-theophylline
Experimental: as §1
Saline samples spiked with theophylline were assayed using the method of the present invention. Theophylline (Sigma Chemical) was first dissolved in saline (1 mg/10 ml) and then diluted to achieve concentrations of 0, 5, 10, 20, 40 and 50 μg/ml. An HITACHI 717 analyzer (Roche Diagnostics Corp., Indianapolis) was programmed to dispense 3 μl of sample and 150 μl of first reagent into a 37° C. cuvette, which were then mixed and incubated for 5 minutes, after which time 150 μl of second reagent was added and mixed. The difference in absorbance at 340 nm was calculated from the initial addition of the second reagent to 5 minutes following the second reagent addition.
J. Org. Chem. 61, 2236-2241, (1996).

[4] = tested on: IMPDH; assay: Sensitivity of mycophenolic acid inhibition of IMPDH; format: biochemical
[5] = target: IMPDH-I (Homo sapiens, UniProt P20839); settings: read-out: Ki (IC50), J. Biol. Chem. 268, 27286-27290 (1993); cited from earlier work
[6] = target: T1, IMPDH II; assay: IMPDH activity as a function of ligand-inhibitor conjugate, antibody and analyte concentration (HITACHI 717, NADH at 340 nm); format: biochemical; design: made in house; host or cells: E. coli
Experimental: One liter of an antibody reagent, or first reagent, was prepared as follows. Approximately 800 ml deionized water was dispensed into a container and 6.0 grams of ACES were added and dissolved. The pH was adjusted to 6.0 with 2N NaOH. Then 0.53 grams NAD were added and dissolved completely. Next 10 ml ascites anti-MPA monoclonal antibody was added. Then 0.95 grams sodium azide was added and dissolved, and finally 1.0 gram of SUTTOCIDE A (GAF Chemicals Corp.) was added and dissolved. The volume was adjusted to one liter with deionized water.
One liter of an enzyme reagent, or second reagent, was prepared as follows. Approximately 800 ml deionized water was dispensed into a container and 56.3 grams of NaTAPSO was added and completely dissolved. Then 81.6 grams of sodium acetate-3H2O were added and dissolved. Next, 1.15 grams of TCEP were added and dissolved. Next 0.319 grams of IMP were added and dissolved, then 2.23 grams of Na2EDTA were added and dissolved. Next 1.0 gram of SUTTOCIDE A was added and dissolved. The volume was adjusted to one liter with deionized water. Approximately 13.4 ml of recombinant human IMPDH-II were added (E. coli lysate) and dissolved completely in order to achieve a change in absorbance at 340 nm of 4400×10^−4 over 5 minutes at 37° C. Next 0.002 grams of ligand-inhibitor conjugate (MPA-MPA, Example 42) were added and dissolved.
Human plasma samples spiked with mycophenolic acid were assayed for MPA using the present invention. An HITACHI 717 analyzer (Roche Diagnostics Corp. Indianapolis) was programmed to dispense 3 μl of sample and 150 μl of antibody reagent into a 37° C. cuvette, which were then mixed and incubated for 5 minutes after which time 150 μl of enzyme reagent was added and mixed. The difference in absorbance at 340 nm was calculated from the initial addition of enzyme reagent to 5 minutes following enzyme reagent addition.
With sample set A, the reagents contained no antibody or ligand-inhibitor and produced maximum IMPDH activity. With sample set B, the enzyme reagent contained ligand inhibitor and was used to show the effect of ligand inhibitor on IMPDH activity.

IMPDH-I, sequence (P20839 whole entry): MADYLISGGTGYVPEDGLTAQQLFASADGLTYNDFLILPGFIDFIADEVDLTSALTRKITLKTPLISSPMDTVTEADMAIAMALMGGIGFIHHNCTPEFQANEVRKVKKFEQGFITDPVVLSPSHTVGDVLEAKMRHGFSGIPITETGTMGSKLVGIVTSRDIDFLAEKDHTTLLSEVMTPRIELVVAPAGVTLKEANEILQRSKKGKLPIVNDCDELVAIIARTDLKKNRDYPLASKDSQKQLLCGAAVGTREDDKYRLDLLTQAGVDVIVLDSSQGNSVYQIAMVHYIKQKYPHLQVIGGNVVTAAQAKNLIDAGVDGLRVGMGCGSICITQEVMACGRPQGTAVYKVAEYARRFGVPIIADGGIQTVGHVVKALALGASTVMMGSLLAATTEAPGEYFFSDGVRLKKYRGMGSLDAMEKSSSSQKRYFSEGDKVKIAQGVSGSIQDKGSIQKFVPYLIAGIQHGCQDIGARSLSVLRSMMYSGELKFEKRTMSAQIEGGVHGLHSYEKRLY

**Q.** Which IC50 [1] does the source give for “5′-(digoxigenin-3-yl-β-amidomethyl)-MPA [16A]” here?
**A.** 170 nM

**Q.** Which IC50 [1] does the source give for “5′-(digoxigenin-3-yl-β-amidomethyl)-MPA [16B]” here?
**A.** 68 nM

**Q.** Which IC50 [1] does the source give for “5′-[(digoxigenin-3-yl)-oxymethylcarbonyl-DADOO-carbonylmethyl]-MPA [compound 26]” here?
**A.** 170 nM

**Q.** Which IC50 [1] does the source give for “5′-[(gentamicin[C1a]-N^1-carbonyl-oxy)-isoprenyl]-MPA” here?
**A.** 660 nM

**Q.** With “5′-[(gentamicin[C1a]-N^1-terephthaloyl)-amino-isoprenyl]-MPA [U]” as the compound, how does the IC50 [1] read?
**A.** 270 nM

**Q.** With “5′-[(isoprenyloxycarbonylaminoethyleneamido)-thyroxine]-MPA [compound 11]” as the compound, how does the IC50 [2] read?
**A.** 83 nM

**Q.** What about the “sensitivity in an immunoassay” value [3] of the same compound?
**A.** greater sensitivity

**Q.** With “5′-[(phenytoin-3-butyramido)-isoprenyl]-MPA” as the compound, how does the IC50 [1] read?
**A.** 88 nM

**Q.** With “5′-[(theophylline-8-butyramidoethylaminocarbonyloxy)-isoprenyl]-MPA [compound 20]” as the compound, how does the IC50 [2] read?
**A.** 250 nM

**Q.** With `COc1c(C)c2c(c(O)c1C/C=C(\C)CCC(=O)O)C(=O)OC2` [MPA, mycophenolic acid] as the compound, how does the “sensitivity of mycophenolic acid inhibition” value [4] read?
**A.** 10 to 20 nM

**Q.** And the Ki [5]?
**A.** 37 nM

**Q.** What about the “ΔA × 10^−4 @ 340 nm” value ([6]; set A: sample MPA 5 μg/ml, no anti-MPA, no MPA—MPA) of the same compound?
**A.** 1939 × 10^−4

**Q.** And the “ΔA × 10^−4 @ 340 nm” value ([6]; set A: sample MPA 10 μg/ml, no anti-MPA, no MPA—MPA)?
**A.** 541 × 10^−4

**Q.** What about the “ΔA × 10^−4 @ 340 nm” value ([6]; set E: sample MPA 5 μg/ml, anti-MPA 1:100, no MPA—MPA) of the same compound?
**A.** 4075 × 10^−4

**Q.** What about the “ΔA × 10^−4 @ 340 nm” value ([6]; set E: sample MPA 10 μg/ml, anti-MPA 1:100, no MPA—MPA) of the same compound?
**A.** 3667 × 10^−4

**Q.** Which IC50 [1] does the source give for MPA-isoprenyl alcohol [3A] here?
**A.** 48 nM

**Q.** For MPA-isoprenyl alcohol [3B], which IC50 [1] is on record?
**A.** 13 nM
